{
  "source": "patent US11638718B2",
  "about": "“Treatment of alphavirus-induced inflammation” (priority 2016, dated 2023)",
  "key": {"[1]": {"tested_on": "alphavirus", "conditions": "earlier studies by the group (refs 30, 55-57); cited from earlier work"}, "[2]": {"tested_on": "Ross River virus (RRV)", "test": "Masson's trichrome and Safranin O/Fast Green histology of muscle, cartilage and epiphyseal plate, RRV-infected mice", "conditions": "day 10 p.i."}, "[3]": {"conditions": "humans, periods greater than 12 months (ref 53); cited from earlier work"}, "[4]": {"tested_on": "chikungunya virus (CHIKV)", "test": "CHIKV-induced footpad swelling and joint histology in mice", "type": "in vivo, C57BL/6 mice"}, "[5]": {"tested_on": "cartilage matrix genes in joint tissues of RRV-infected mice", "test": "Real-time PCR of cartilage matrix genes in joint tissues, acute RRV infection"}, "[6]": {"tested_on": "Ross River virus (RRV)", "test": "RRV-induced disease in mice: clinical score and weight", "type": "in vivo, C57BL/6 mice", "conditions": "RRV-infected mice, PPS 3 mg/kg i.p. daily vs vehicle"}, "[7]": {"tested_on": "chikungunya virus (CHIKV)", "test": "Serum soluble factors by multiplex, CHIKV-infected mice"}, "[8]": {"tested_on": "Ross River virus (RRV)", "test": "RRV viral load: plaque assay on Vero cells and nsP3 qPCR", "type": "in vivo, C57BL/6 mice"}, "[9]": {"tested_on": "Ross River virus (RRV)", "test": "Detection of leukocyte infiltrates in quadriceps by flow cytometry, RRV-infected mice"}, "[10]": {"tested_on": "Ross River virus (RRV)", "test": "Serum soluble factors by multiplex bead array, RRV-infected mice"}, "[11]": {"tested_on": "Ross River virus (RRV)", "test": "Long-term oral PPS treatment of RRV-infected mice: clinical signs, joint gene expression"}, "[12]": {"tested_on": "Ross River virus (RRV)", "test": "H&E histology of quadriceps muscle and joint inflammation, RRV-infected mice"}, "[13]": {"tested_on": "chikungunya virus (CHIKV)", "test": "CHIKV viral load: plaque assay on Vero cells and E2 qPCR", "type": "in vivo, C57BL/6 mice", "conditions": "CHIKV-infected, days 1, 3 and 7 p.i."}, "[14]": {"conditions": "peak disease (day 10 p.i.), not at the early stages"}, "[15]": {"conditions": "RRV + PPS, long-term oral treatment, joint tissue"}, "[16]": {"conditions": "long-term oral PPS, RRV-infected"}},
  "note": "Marks after values point to notes of the source that are not given here.",
  "data": [
    {"substance": "Enbrel", "values": [
      {"measurement": "effect on alphavirus disease", "setting": "[1]", "result": "suppress the antiviral response and enhance viral replication thereby worsen disease"}
    ]},
    {"substance": "pentosan polysulfate [PPS]", "values": [
      {"measurement": "chondrocyte morphology", "setting": "[2]", "result": "maintaining chondrocyte morphology"},
      {"measurement": "epiphyseal plate thickness", "setting": "[2]", "result": "prevented RRV-induced thinning of the epiphyseal plate"},
      {"measurement": "loss of articular cartilage", "setting": "[2]", "result": "preventing the loss of articular cartilage"},
      {"measurement": "proteoglycan matrix of articular cartilage (Safranin O/Fast Green, knee joint)", "setting": "[2]", "result": "protected the proteoglycan matrix of the articular cartilage"},
      {"measurement": "skeletal muscle morphology (tibialis anterior, Masson's trichrome)", "setting": "[2]", "result": "protected the morphology of striations within the skeletal muscle"},
      {"measurement": "tolerability of long-term clinical use", "setting": "[3]", "result": "extremely well tolerated"},
      {"measurement": "joint (footpad) swelling", "setting": "[4]; CHIKV-infected mice, PPS 3 mg/kg i.p. daily", "result": "decreased the level of joint swelling"},
      {"measurement": "inflammatory cells infiltrating into the joint (H&E)", "setting": "[4]; CHIKV-infected, peak swelling 3 days p.i.", "result": "reduction in inflammatory cells infiltrating into the joint"},
      {"measurement": "BMP-1 expression", "setting": "[5]; RRV-infected, PPS 3 mg/kg i.p.", "result": "unaffected"},
      {"measurement": "TGF-β1 expression", "setting": "[5]; RRV-infected, PPS 3 mg/kg i.p.", "result": "unaffected"},
      {"measurement": "aggrecan expression increase caused by RRV", "setting": "[5]; RRV-infected, PPS 3 mg/kg i.p.", "result": "largely reduced"},
      {"measurement": "collagen I expression increase caused by RRV", "setting": "[5]; RRV-infected, PPS 3 mg/kg i.p.", "result": "largely reduced"},
      {"measurement": "collagen II expression increase caused by RRV", "setting": "[5]; RRV-infected, PPS 3 mg/kg i.p.", "result": "largely reduced"},
      {"measurement": "metalloproteinases expression", "setting": "[5]; RRV-infected, PPS 3 mg/kg i.p.", "result": "unaffected"},
      {"measurement": "early expression of aggrecan", "setting": "[5]; early time points p.i.", "result": "significantly reduced"},
      {"measurement": "early expression of collagen II", "setting": "[5]; early time points p.i.", "result": "significantly reduced"},
      {"measurement": "ADAMTS-5 expression in joint tissue", "setting": "[5]; [14]", "result": "significantly reduced"},
      {"measurement": "TIMP-3 expression in joint tissue", "setting": "[5]; [14]", "result": "significantly reduced"},
      {"measurement": "decrease in clinical disease score", "setting": "[6]", "result": 65, "unit": "%"},
      {"measurement": "disease-associated weight loss", "setting": "[6]", "result": "protection from disease-associated weight loss"},
      {"measurement": "serum IL-10", "setting": "[7]; early", "result": "early surge"},
      {"measurement": "serum CCL-2", "setting": "[7]; peak disease (day 3 p.i.)", "result": "reduced the levels"},
      {"measurement": "serum G-CSF", "setting": "[7]; peak disease (day 3 p.i.)", "result": "reduced the levels"},
      {"measurement": "serum IL-6", "setting": "[7]; peak disease (day 3 p.i.)", "result": "reduced the levels"},
      {"measurement": "serum IL-9", "setting": "[7]; peak disease (day 3 p.i.)", "result": "reduced the levels"},
      {"measurement": "viral titres in serum", "setting": "[8]; PPS-treated vs mock-treated, all days tested, plaque assay", "result": "comparable"},
      {"measurement": "RRV titres in quadriceps muscles", "setting": "[8]; PPS-treated vs mock-treated, plaque assay", "result": "comparable"},
      {"measurement": "RRV titres in ankle tissues", "setting": "[8]; day 3 p.i., plaque assay", "result": "slight reduction"},
      {"measurement": "RRV titres in ankle tissues", "setting": "[8]; day 7 p.i., plaque assay", "result": "comparable"},
      {"measurement": "RRV RNA in joint tissue (qPCR), difference to mock-treated", "setting": "[8]; day 10 p.i.", "result": "not statistically significant"},
      {"measurement": "RRV titres in ankle tissues", "setting": "[8]; day 10 p.i., plaque assay, vs mock-treated", "result": "elevated"},
      {"measurement": "NK cell population in quadriceps", "setting": "[9]; day 7 p.i.", "result": "reductions"},
      {"measurement": "T cell population in quadriceps", "setting": "[9]; day 7 p.i.", "result": "reductions"},
      {"measurement": "monocyte population in quadriceps", "setting": "[9]; day 7 p.i.", "result": "reductions"},
      {"measurement": "numbers of CD45+ infiltrating leukocytes in quadriceps", "setting": "[9]; day 7 p.i.", "result": "uniformly reduced"},
      {"measurement": "NK cell population in quadriceps", "setting": "[9]; day 10 p.i.", "result": "decrease"},
      {"measurement": "T cell population in quadriceps", "setting": "[9]; day 10 p.i.", "result": "decrease"},
      {"measurement": "percentage of NK cells in quadriceps (NK cell to total cell ratio)", "setting": "[9]; day 10 p.i., data not shown", "result": "reduction in the overall percentage of NK cells"},
      {"measurement": "serum IL-10", "setting": "[10]; day 1 p.i.", "result": "significantly elevated"},
      {"measurement": "serum chemo-attractants factors", "setting": "[10]; day 1 p.i.", "result": "increased levels"},
      {"measurement": "serum IL-10", "setting": "[10]; day 3 p.i.", "result": "significantly elevated"},
      {"measurement": "serum CCL-2", "setting": "[10]; peak disease (day 10 p.i.)", "result": "significantly reduced"},
      {"measurement": "serum IL-1α", "setting": "[10]; peak disease (day 10 p.i.)", "result": "significantly reduced"},
      {"measurement": "serum IL-2", "setting": "[10]; peak disease (day 10 p.i.)", "result": "significantly reduced"},
      {"measurement": "serum IL-6", "setting": "[10]; peak disease (day 10 p.i.)", "result": "significantly reduced"},
      {"measurement": "serum MIP-1α", "setting": "[10]; peak disease (day 10 p.i.)", "result": "significantly reduced"},
      {"measurement": "Fold Change ADAMTS-4", "setting": "[11]; [15]", "result": "0.1689**"},
      {"measurement": "Fold Change ADAMTS-5", "setting": "[11]; [15]", "result": 0.8305},
      {"measurement": "Fold Change Aggrecan", "setting": "[11]; [15]", "result": "0.6105***"},
      {"measurement": "Fold Change BMP-1", "setting": "[11]; [15]", "result": 1.4697},
      {"measurement": "Fold Change Collagen I", "setting": "[11]; [15]", "result": 0.4014},
      {"measurement": "Fold Change Collagen II", "setting": "[11]; [15]", "result": 0.1719},
      {"measurement": "Fold Change MMP-3", "setting": "[11]; [15]", "result": 2.5028},
      {"measurement": "Fold Change MMP-9", "setting": "[11]; [15]", "result": 0.8604},
      {"measurement": "Fold Change TGF-β1", "setting": "[11]; [15]", "result": 0.4010},
      {"measurement": "Fold Change TIMP-3", "setting": "[11]; [15]", "result": 0.6328},
      {"measurement": "ADAMTS-4 expression", "setting": "[11]; [16]", "result": "reduced"},
      {"measurement": "expression of aggrecan", "setting": "[11]; [16]", "result": "back to base-line levels"},
      {"measurement": "joint damage", "setting": "[11]; [16]", "result": "less joint damage"},
      {"measurement": "adverse clinical signs", "setting": "[11]; oral PPS in drinking water 100 mg/L (25 mg/kg/day), 3-month duration", "result": "no adverse clinical signs"},
      {"measurement": "infiltrating cells in muscle and joint tissues (H&E)", "setting": "[12]; RRV-infected, PPS 3 mg/kg i.p. daily, day 7 and 10 p.i.", "result": "markedly reduced numbers of infiltrating cells"},
      {"measurement": "inflammation in quadriceps muscle or ankle joint", "setting": "[12]; mock-infected PPS-treated mice", "result": "No inflammation was observed"},
      {"measurement": "kinetics of virus infection (plaque assay)", "setting": "[13]", "result": "did not affect the kinetics of virus infection"}
    ]}
  ]
}
